Entries after “also recorded” stand apart in the source; their conditions may differ.
Assays:
[1] = system: differentiated human NT2N neurons; assay: MTT assay, Aβ1-42-induced toxicity on differentiated NT2N neurons; assay type: cell-based; conditions: for protection against Aβ-induced toxicity: 25 μM Aβ1-42, 72 hours
Aβ1-42 = Aβ1-42 (Homo sapiens, UniProt P05067); assay: Aβ aggregation assay (SDS-PAGE, immunoblot); assay type: biochemical; conditions: 50 μM Aβ1-42; 24 hours at 37° C.
Procedure: At the end of the incubation, proteins were separated by SDS-PAGE on 4-20% gradient acrylamide-bis-acrylamide gel at 125V for 2 hours. Proteins were visualized by coomassie blue staining. Aβ species were identified by immunoblot analysis. Yao, Z. et al., Brain Res. (2001).
The ability of 22R-hydroxycholesterol to alter Aβ aggregation was also examined. […] At the end of the incubation proteins were separated by SDS-PAGE and visualized by coomassie blue (FIG. 6A). Aβ species formed were identified by immunoblotting using an anti-Aβ polyclonal antiserum (FIG. 6B). Aβ aggregation can be seen on the top of the gel and it is absent in control-media lane. […] A 100 kDa band recognized by the Aβ polyclonal antiserum used in all samples, including control-media, probably reflects non-specific binding of the antiserum.

[2] = system: PC12 cells (rat pheochromocytoma neurons); assay: MTT cytotoxicity assay, Aβ-induced neurotoxicity in PC12 cells (Example II); assay type: cell-based; conditions: MTT; compounds at 30 and 50 μM; 72 hours
Procedure: PC12 cells (rat pheochromocytoma neurons) from ATCC (Manassas, Va.) were cultured at 37° C. and 5% CO2 in RPMI 1640 medium devoid of glutamine and supplemented with 10% fetal bovine serum and 5% horse serum. Yao Z, Drieu K and Papadopoulos V., The Gingko biloba extract EGb 761 rescues PC12 neuronal cells from β-amyloid-induced cell death by inhibiting the formation of (3-amyloid-derived diffusible neurotoxic ligands, Brain Res, 889, 181-190 (2001). Cells were seeded in 96-well plates (8×10^4 cells/well). After an overnight period of incubation, increasing concentrations of aggregated Aβ (0.1, 1 and 10 μM) were added to the cells in the presence or absence of the indicated concentrations of the SP compounds to be tested. After 72-hours incubation time various parameters, markers of cell viability, were determined. Mouse MA-10 tumor Leydig cells were maintained at 37° C. in DMEM/Ham's F12 (Biofluids, Rockville, Md.) medium supplemented with 5% heat-inactivated fetal calf serum and 2.5% horse serum in 5% CO2. Cells were plated on 96-well plates at the density of 2.5×10^4 cells/well for overnight. The cells were stimulated with the indicated concentrations of the various SP compounds in 0.2 ml/well serum-free medium for 2 hours. The culture medium was collected and tested for progesterone production by radioimmunoassay.
The cellular toxicity of Aβ was assessed using the 3-(4,5-dimethylthiazol-2-yl)-2,5-diphenyl tetrazolium bromide (MTT) assay (Trevigen, Gaithersburg, Md.). Briefly, 10 μl of the MTT solution were added to the cells cultured in 100 μl medium. After an incubation period of 4 hours, 100 μl of detergent were added and cells were incubated overnight at 37° C. Formazan blue formation was quantified at 600 nm and 690 nm using the Victor quantitative detection spectrophotometer (EGG-Wallac, Gaithersburg, Md.) and the results expressed as (DO600-DO690). […] Liu Y and Schubert D, Steroid hormones block amyloid fibril-induced 3-(4,5-dimethylthiazol-2-yl)-2,5-diphenyltetrazolium bromide (MTT) formazan exocytosis: relationship to neurotoxicity, J. Neurochem., 19, 1639-1662 (1998). For that reason, additional cytotoxicity and cell viability assays were used.
Yao et al., J. Neurochem., 83, 1110-1119 (2002); and Yao et al., The Gingko biloba extract EGb 761 rescues PC12 neuronal cells from β-amyloid-induced cell death by inhibiting the formation of β-amyloid-derived diffusible neurotoxic ligands, Brain Res., 889, 181-190 (2001). To stay close to the concentrations of Aβ present in AD brain, 0.1-10 μM concentrations of Aβ were used. The compounds tested for their neuroprotective properties were examined at 30 and 50 μM concentrations (FIGS. 9-15).

Aβ = biological target: T1, Aβ (Homo sapiens, UniProt P05067); assay: CPBBA displacement of radiolabeled 22R-hydroxycholesterol from Aβ (Example II); assay type: binding; conditions: 100 μM unlabeled compound; 50 μM Aβ
T1 construct: Aβ1-42 peptide was purchased from American Peptide Co; purchased American Peptide Co. (Sunnyvale, Calif.)
T1 sequence (P05067 672-713): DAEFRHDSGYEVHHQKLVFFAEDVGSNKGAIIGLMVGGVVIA
Procedure: At the end of the incubation time, samples were separated by 1.5% agarose (Type I-B) gel electrophoresis under native conditions and transferred to nitrocellulose membrane (Schleicher&Schuell, Keene, N.H.) in 10×SSC buffer. The membrane was exposed to tritium-sensitive screen and analyzed by phosphoimaging using the Cyclone Storage phosphor system (Packard BioScience). Image-densitometric analysis was performed using the OptiQuant software (Packard BioScience). […] Low molecular weight unincorporated 22R-hydroxycholesterol and derivatives are separated and eliminated during electrophoresis.

NT2 cells [3] = assay: NT2 cell differentiation, phase-contrast morphology; assay type: cell-based, human; conditions: 25 μM; 3, 6 and 12 days (comparators 6 days)
NT2 cells [4] = assay: Flow cytometry of NT2 cells (cell cycle); assay type: cell-based, human; conditions: 25 μM, 12 days of treatment
Procedure: Human NT2 precursor (Ntera2/D 1 teratocarcinoma) cells were obtained from Stratagene (La Jolla, Calif., USA) and cultured following the instructions of the supplier. […] After trypsinization, the cells were collected, suspended (1-2×10^6 cells in 0.1 ml citrate/DMSO solution), stained with a solution containing propidium iodide (50 μg/ml) and RNase (10 μg/ml), and subjected to flow cytometric analysis in an FACS Scan flow cytometer (Becton Dickinson, Menlo Park, Calif., USA) equipped with a Modfit software program (Vindelov et al., Cytometry, 3, 332 (1983)).

NT2 cells [5] = assay: LDH and MTT assays, NT2 cell viability
rat PC12 neuronal cells = assay: MTT assay, Aβ1-42-induced cytotoxicity in PC12 cells (Example I)

Aβ1-42, sequence (P05067 672-713): as above

Structure (SMILES): CC(C)CC[C@@H](O)[C@@H](C)[C@H]1CC[C@H]2[C@@H]3CC=C4C[C@@H](O)CC[C@]4(C)[C@H]3CC[C@]12C [SP222, 22R-hydroxycholesterol]
- protection against Aβ-induced toxicity ([1]; 1 μM compound): 50%
- protection against Aβ-induced toxicity ([1]; 10 μM compound): 100%
- IC50 ([1]; Homo sapiens, Neuron, NT2T cells, read-out: IC50 of protection from Aβ-induced toxicity): 3 µM
- effect on Aβ aggregation (Aβ1-42): did not affect Aβ aggregation
- neuroprotection against 0.1 μM Aβ-induced neurotoxicity [2]: protects
- neuroprotection against 1 μM Aβ-induced neurotoxicity [2]: protects
- neuroprotection against 10 μM Aβ-induced neurotoxicity [2]: limited neuroprotection
- displacement of radiolabeled 22R-hydroxycholesterol binding to Aβ (Aβ): 80%
- effect on NT2 cell morphology (differentiation) (NT2 cells [3]): induced morphologic changes
- percentage of cells in the G2/M phase (NT2 cells [4]; from 34.43%): 15.90%
- percentage of cells in the G0/G1 phase (NT2 cells [4]; from 35.32%): 50.34%
- cytotoxicity at high concentrations (NT2 cells [5]; LDH and MTT, 25-50 μM, 3-day treatment): cytotoxic
- concentration affecting viability of undifferentiated NT2 cells (NT2 cells [5]; MTT): > 10 µM
- rescue from 25 μM Aβ-induced cytotoxicity (rat PC12 neuronal cells; MTT, 25 μM Aβ1-42): rescue all the cells; also recorded: full protection
- cells rescued in the presence of 50 μM Aβ (rat PC12 neuronal cells; MTT, 50 μM Aβ1-42): 50%
- PC12 cell viability, steroid alone (rat PC12 neuronal cells; MTT, absence of Aβ): did not affect PC12 cell viability
- IC50 (rat PC12 neuronal cells; Rattus norvegicus, PC-12, read-out: IC50 of protection from Aβ-induced toxicity): 10 µM
- protection by pretreatment followed by treatment with Aβ (rat PC12 neuronal cells; pretreatment of PC12 cells, data not shown): failed to offer any protection
- protection against Aβ oligomer-induced toxicity (rat PC12 neuronal cells; soluble Aβ (oligomers), not shown): protected

— patent US20060009433A1, “Neuroprotective spirostenol pharmaceutical compositions” (priority 2003, published 2006)
